Tests used:
[1] = system: TNF-α induced IL-8 production in human whole blood; test: Inhibition of TNF-α induced IL-8 in 50% human whole blood; assay type: cell-based; conditions: 1 nM TNF-α, secreted IL-8, 16-18 hours, read-out: WB TNF/IL8 IC50
Protocol: Inhibition of TNF-α Induced IL-8 in 50% Human Whole Blood
Test compounds were evaluated in vitro for the ability to inhibit the production of secreted IL-8 by whole blood activated with TNF-α. Fresh human whole blood was obtained from healthy, non-medicated volunteers in sodium heparin tubes.
Compound Dilution—Assay Procedure
Test compounds are serially diluted 1:3 in DMSO and then diluted 1:250 into R10 (RPMI 1640, 10% human serum AB, 1× pen/strep/glutamine) to the 4× working concentration to be used in the assay. 100 ul heparinized whole blood is plated into wells of 96 well flat bottom plates. 50 ul of either 4× compound or DMSO control (Final DMSO concentration is 0.1%) are added to the appropriate wells. Plates are incubated for 1 hour at 37 degrees Celsius. 50 ul of 4×TNF-α (4 nM TNF-α, for a final concentration of 1 nM) or control (media alone) is added to the appropriate wells (Total volume=200 ul). Plates are incubated overnight (16-18 hours). 100 ul of supernatant is collected and stored in 96-well round bottom polypropylene plates at −80 degrees Celsius or assayed immediately for IL-8.
Cytokines are measured on antibody (Ab) sandwich ECL based 96-well detection plates. 20 ul of supernatant are added to plate and plate is sealed and shaken at RT for 1 hour. 130 ul of detection Ab cocktail is added and plates are sealed and shaken for 1 hour in the dark at RT. Plates are read on MSD Sector HTS instrument. Data are analyzed and IC50 values generated using Activity Base and Xl-fit programs.

human p38α = human p38α (Homo sapiens, UniProt Q16539); test: Purified and activated recombinant human p38α assay (HTRF); assay type: biochemical; conditions: 1 nM p38α, 50 μM ATP, 100 nM GST-ATF2-Avitag, 1 hour at RT, read-out: p38a IC50 IC50
Protocol: Purified and Activated Recombinant Human p38α Assay
Kinase Reaction Buffer: Kinase reaction buffer for p38α HTRF assays consists of 50 mM Tris-pH 7.5, 5 mM MgCl2, 0.1 mg/mL BSA, 100 μM Na3VO4 and 0.5 mM DTT.
HTRF Detection Buffer: HTRF detection buffer contains 100 mM HEPES-pH 7.5, 100 mM NaCl, 0.1% BSA, 0.05% Tween-20, and 10 mM EDTA.
Serial Dilution of Compounds: Compounds were dissolved in 100% DMSO and serially diluted (3 fold, 10 point) in a polypropylene 96-well microtiter plate (drug plate). The final starting concentration of compounds in the p38α enzymatic assays was 1 μM. Columns 6 and 12 (HI controls and LO controls respectively) in the drug plate were reserved as controls and contained only DMSO. Kinase Reaction: The p38α kinase reactions were carried out in a polypropylene 96-well black round bottom assay plate in total volume of 30 μL kinase reaction buffer. Appropriate concentration of purified and activated enzyme (recombinant human) was mixed with indicated concentration of ATP and 100 nM GST-ATF2-Avitag, in the presence or absence (HI control) of Compound. See table below for actual concentrations. In the absence of substrate, the background was measured as LO control. The reaction was allowed to incubate for 1 hour at RT. Assay Reagent Concentrations: The final reagent concentrations were 1 nM p38α and 50 μM ATP. […] After 60 minutes incubation at room temperature, the assay plate was read in a Discovery Plate Reader. The wells were excited with coherent 320 nm light and the ratio of delayed ([…] post excitation) emissions at […] (native europium fluorescence) and 665 nm (europium fluorescence transferred to allophycocyanin—an index of substrate phosphorylation) was determined (Park et al, 1999). Data Analysis: The proportion of substrate phosphorylated in the kinase reaction in the presence of compound compared with that phosphorylated in the presence of DMSO vehicle alone (HI control) was calculated using the formula: % control (POC)=(compound−average LO)/(average HI−average LO)*100. Data (consisting of POC and inhibitor concentration in μM) was fitted to a 4-parameter equation (y=A+((B−A)/(1+((x/C)^D))), where A is the minimum y (POC) value, B is the maximum y (POC), C is the x (compound concentration) at the point of inflection and D is the slope factor, using a Levenburg-Marquardt non-linear regression algorithm.
The inhibition constant (Ki) of the inhibitor was estimated from the IC50 (compound concentration at the point of inflection C) using the Cheng-Prussof equation: Ki=IC50/(1+S/Km), where S is the ATP substrate concentration, and Km is the Michaelis constant for ATP as determined experimentally. All results were expressed as the mean±the standard error of the mean. Data acquisition and non-linear regression algorithms were performed using Activity Base v5.2 and XL-fit software v4.1 respectively. All data was archived using Activity Base v5.2 software.

Sequence of human p38α (Q16539 whole entry): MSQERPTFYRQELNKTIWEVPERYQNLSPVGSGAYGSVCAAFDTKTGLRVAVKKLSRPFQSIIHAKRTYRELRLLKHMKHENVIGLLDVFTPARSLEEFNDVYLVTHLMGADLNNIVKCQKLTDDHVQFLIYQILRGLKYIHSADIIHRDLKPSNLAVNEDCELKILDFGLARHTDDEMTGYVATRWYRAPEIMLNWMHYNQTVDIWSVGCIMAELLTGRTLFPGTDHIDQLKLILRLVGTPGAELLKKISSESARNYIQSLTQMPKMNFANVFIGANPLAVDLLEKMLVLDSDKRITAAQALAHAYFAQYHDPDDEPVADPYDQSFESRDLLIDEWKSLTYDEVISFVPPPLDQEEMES

IC50 [1] [nM] | IC50 (human p38α) [nM] | Compound
1.8 | 0.7 | Cc1ncccc1-c1nncc2cc(Nc3ccc(F)cc3)ccc12 [Example 29, N-(4-fluorophenyl)-1-(2-methyl-3-pyridinyl)-6-phthalazinamine]
4.9 | 0.9 | Cc1noc(C)c1-c1nncc2cc(Nc3ccc(F)cc3)ccc12 [Example 30, 1-(3,5-dimethyl-4-isoxazolyl)-N-(4-fluorophenyl)-6-phthalazinamine]
1.7 | 0.7 | Fc1ccc(Nc2ccc3c(-c4ccccc4Cl)nncc3c2)cc1 [Example 31, 1-(2-chlorophenyl)-N-(4-fluorophenyl)-6-phthalazinamine]
4.9 | 1 | Cn1nccc1-c1nncc2cc(Nc3ccc(F)cc3)ccc12 [Example 32, N-(4-fluorophenyl)-1-(1-methyl-1H-pyrazol-5-yl)-6-phthalazinamine]
20 | 0.8 | Cc1cc(S(C)(=O)=O)ccc1-c1nncc2cc(Nc3ccc(F)cn3)ccc12 [Example 33, N-(5-fluoro-2-pyridinyl)-1-(2-methyl-4-(methylsulfonyl)phenyl)-6-phthalazinamine]
16 | 8 | c1ccc(Nc2ccc3c(N4CCOCC4)nncc3c2)cc1 [Example 34, 1-(4-morpholinyl)-N-phenyl-6-phthalazinamine]

Compound | IC50 [1] [nM] | IC50 (human p38α) [nM]
N-(4-fluorophenyl)-1-((2,2,2-trifluoro-1-methylethyl)oxy)-6-phthalazinamine [Example 23] | 137 | 9.1
